Here are results for one molecule from publication PMC9587005, “Phosphatidic Acid Mediates the Nem1-Spo7/Pah1 Phosphatase Cascade in Yeast Lipid Synthesis” (Journal of Lipid Research, 2022).

In this experiment the target is T1, Nem1-Spo7 protein phosphatase complex (Saccharomyces cerevisiae, UniProt P38757).
T1 construct: Protein A-tagged Nem1 with Spo7, overexpressed in S. cerevisiae RS453, IgG-Sepharose purified, reconstituted into phospholipid vesicles
T1 sequence (P38757 1-446): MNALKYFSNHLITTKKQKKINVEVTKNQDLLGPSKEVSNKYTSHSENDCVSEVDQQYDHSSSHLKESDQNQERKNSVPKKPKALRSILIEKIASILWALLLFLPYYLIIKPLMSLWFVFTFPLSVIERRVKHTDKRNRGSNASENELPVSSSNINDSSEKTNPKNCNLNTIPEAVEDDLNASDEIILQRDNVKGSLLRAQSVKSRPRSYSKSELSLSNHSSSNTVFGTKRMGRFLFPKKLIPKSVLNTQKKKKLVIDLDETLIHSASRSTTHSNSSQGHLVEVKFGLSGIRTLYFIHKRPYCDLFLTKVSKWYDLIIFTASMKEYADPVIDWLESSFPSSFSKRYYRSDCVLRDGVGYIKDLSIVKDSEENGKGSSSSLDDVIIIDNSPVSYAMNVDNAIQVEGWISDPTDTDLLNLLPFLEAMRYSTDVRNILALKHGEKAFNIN
T1 sequence (P18410 1-259 partner): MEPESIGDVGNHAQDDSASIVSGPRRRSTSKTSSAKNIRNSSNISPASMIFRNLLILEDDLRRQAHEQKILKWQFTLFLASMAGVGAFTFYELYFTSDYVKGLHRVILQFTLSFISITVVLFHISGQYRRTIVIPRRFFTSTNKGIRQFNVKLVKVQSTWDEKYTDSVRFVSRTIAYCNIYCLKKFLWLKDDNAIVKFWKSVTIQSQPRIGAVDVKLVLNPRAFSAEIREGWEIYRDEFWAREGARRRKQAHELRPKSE
The experiment in a line: release of […] from […]Pah1, proteoliposomes. It is filed as biochemical. The settings on record: activator (cooperative), direct binding not shown, membrane effect possible; reconstituted in PC/PE/PI/PS vesicles; substrate Pah1 phosphorylated by Pho85-Pho80; 10 mM MgCl2, pH 5.0, 30 °C.

With `CCCCCCCC/C=C\CCCCCCCC(=O)OC[C@H](COP(=O)(O)O)OC(=O)CCCCCCC/C=C\CCCCCCCC` [PA], the “fold stimulation at 10 mol %” value was found to be 3.6 fold.
